Consider three compounds from ChEMBL document CHEMBL3045853, “Bifenthrin longevity at the termiticidal application rate” (2012).

Experiment [1] has as its system Reticulitermes flavipes. Briefly: Termiticidal activity against Reticulitermes flavipes after 3 days by forced exposure test. Type of experiment: functional.
The subject of experiment [2] is Reticulitermes flavipes. The experiment in a line: Termiticidal activity against Reticulitermes flavipes assessed as mortality at 0.6 ug/g by forced exposure test. Type of experiment: functional.
In experiment [3] the test system is Reticulitermes flavipes. The experiment in a line: Termiticidal activity against Reticulitermes flavipes after 7 days by forced exposure test. Format: functional, organism-based.
In experiment [4] the test system is Reticulitermes flavipes. Briefly: Termiticidal activity against Reticulitermes flavipes assessed as mortality at 0.6 ug/g after 10 months by forced exposure test. Format: functional.
The test system of experiment [5] is Reticulitermes flavipes. The experiment in a line: Termiticidal activity against Reticulitermes flavipes assessed as mortality at 0.6 ug/g after 5 months by forced exposure test. Type of experiment: functional.
Experiment [6] relates to Reticulitermes flavipes. The experiment in a line: Termiticidal activity against Reticulitermes flavipes assessed as mortality at 0.06 ug/g after 7 days by forced exposure test. Format: functional.
The test system of experiment [7] is Reticulitermes flavipes. The experiment in a line: Termiticidal activity against Reticulitermes flavipes assessed as mortality after 4 days by forced exposure test. Format: functional.
In experiment [8] the test system is Reticulitermes flavipes. Briefly: Termiticidal activity against Reticulitermes flavipes assessed as mortality at 0.6 ug/g after 3 days by forced exposure test. Type of experiment: functional.
In experiment [9] the test system is Reticulitermes flavipes. The experiment in a line: Termiticidal activity against Reticulitermes flavipes at 0.69 ug/g after 7 days by forced exposure test. Type of experiment: functional, organism-based.
The test system of experiment [10] is Reticulitermes flavipes. Briefly: Termiticidal activity against Reticulitermes flavipes assessed as mortality at 6.9 ug/g after 7 days by forced exposure test. Type of experiment: functional.

SMILES strings stand for the structures. Activity calls are given as the source filed them. The calls are words filed in the database; no cut-off is given here.

By mortality is commonly meant the share of the test organisms that died. `Cc1c(COC(=O)[C@@H]2[C@H](/C=C(\Cl)C(F)(F)F)C2(C)C)cccc1-c1ccccc1` [BIFENTHRIN] registered an LC50 with Reticulitermes flavipes [1] of 0.074 µg/g. In the experiment with Reticulitermes flavipes [1], this compound displayed an LC95 of 0.724 µg/g. Moreover, the mortality in the experiment with Reticulitermes flavipes [2] is given as 100%; in the experiment on Reticulitermes flavipes [4], 73.9%; in the experiment on Reticulitermes flavipes [5], 63%. Further, the result with Reticulitermes flavipes [3] was inactive.

With `N#Cc1nn(-c2c(Cl)cc(C(F)(F)F)cc2Cl)c(N)c1[S+]([O-])C(F)(F)F` (configuration not stated) [FIPRONIL], the mortality with Reticulitermes flavipes [6] and with Reticulitermes flavipes [8] was 100% each time. Also, the LC50 in the experiment on Reticulitermes flavipes [7] came to 0.49 µg/g.

Consider `O=[N+]([O-])/N=C1\NCCN1Cc1ccc(Cl)nc1` [IMIDACLOPRID], for which the result with Reticulitermes flavipes [9] and with Reticulitermes flavipes [1] was inactive. Further, the mortality with Reticulitermes flavipes [10] is 80%.
